Patent US9260483B2, “Triazacyclononane-based phosphinate ligand and its use for molecular imaging” (TECHNISCHE UNIVERSITÄT MÜNCHEN, priority 2011, dated 2016)
Read-outs that look alike come from different tables or passages of the source.

Tests used:
αvβ3 integrin = molecular target: T1, αvβ3 integrin (Homo sapiens, UniProt P05106+P06756); assay: In vitro binding assay: displacement of 125I-echistatin on M21 human melanoma cells
T1 construct: endogenous in cells; host or cells: M21 human melanoma cells
T1 sequence (P06756 31-889 limits assumed): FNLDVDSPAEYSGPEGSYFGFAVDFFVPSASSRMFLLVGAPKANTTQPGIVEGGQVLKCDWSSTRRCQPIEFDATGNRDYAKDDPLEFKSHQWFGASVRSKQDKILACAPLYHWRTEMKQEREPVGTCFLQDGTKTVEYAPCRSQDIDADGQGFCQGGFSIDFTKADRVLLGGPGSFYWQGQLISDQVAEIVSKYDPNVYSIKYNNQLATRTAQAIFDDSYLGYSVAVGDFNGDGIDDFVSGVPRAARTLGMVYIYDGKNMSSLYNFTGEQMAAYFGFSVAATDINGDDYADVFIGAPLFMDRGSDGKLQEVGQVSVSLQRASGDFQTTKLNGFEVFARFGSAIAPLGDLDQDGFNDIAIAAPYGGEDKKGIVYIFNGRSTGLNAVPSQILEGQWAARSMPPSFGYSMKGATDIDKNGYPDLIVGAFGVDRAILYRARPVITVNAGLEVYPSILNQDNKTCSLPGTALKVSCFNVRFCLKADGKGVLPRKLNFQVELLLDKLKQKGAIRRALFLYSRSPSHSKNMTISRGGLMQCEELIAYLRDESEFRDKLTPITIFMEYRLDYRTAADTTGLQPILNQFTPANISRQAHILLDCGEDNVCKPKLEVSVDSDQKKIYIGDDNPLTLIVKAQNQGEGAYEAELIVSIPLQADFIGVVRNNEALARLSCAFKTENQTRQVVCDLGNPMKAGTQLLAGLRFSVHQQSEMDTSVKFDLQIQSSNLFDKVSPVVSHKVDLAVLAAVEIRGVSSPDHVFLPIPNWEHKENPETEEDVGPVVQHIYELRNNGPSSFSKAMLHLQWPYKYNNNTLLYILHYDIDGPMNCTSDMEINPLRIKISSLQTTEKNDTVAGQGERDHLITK
T1 sequence (P06756 891-1048 partner limits assumed): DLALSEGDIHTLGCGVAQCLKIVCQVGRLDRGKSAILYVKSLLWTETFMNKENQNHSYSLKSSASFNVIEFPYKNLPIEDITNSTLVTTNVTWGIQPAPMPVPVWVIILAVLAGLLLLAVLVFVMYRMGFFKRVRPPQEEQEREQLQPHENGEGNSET
T1 sequence (P05106 27-788): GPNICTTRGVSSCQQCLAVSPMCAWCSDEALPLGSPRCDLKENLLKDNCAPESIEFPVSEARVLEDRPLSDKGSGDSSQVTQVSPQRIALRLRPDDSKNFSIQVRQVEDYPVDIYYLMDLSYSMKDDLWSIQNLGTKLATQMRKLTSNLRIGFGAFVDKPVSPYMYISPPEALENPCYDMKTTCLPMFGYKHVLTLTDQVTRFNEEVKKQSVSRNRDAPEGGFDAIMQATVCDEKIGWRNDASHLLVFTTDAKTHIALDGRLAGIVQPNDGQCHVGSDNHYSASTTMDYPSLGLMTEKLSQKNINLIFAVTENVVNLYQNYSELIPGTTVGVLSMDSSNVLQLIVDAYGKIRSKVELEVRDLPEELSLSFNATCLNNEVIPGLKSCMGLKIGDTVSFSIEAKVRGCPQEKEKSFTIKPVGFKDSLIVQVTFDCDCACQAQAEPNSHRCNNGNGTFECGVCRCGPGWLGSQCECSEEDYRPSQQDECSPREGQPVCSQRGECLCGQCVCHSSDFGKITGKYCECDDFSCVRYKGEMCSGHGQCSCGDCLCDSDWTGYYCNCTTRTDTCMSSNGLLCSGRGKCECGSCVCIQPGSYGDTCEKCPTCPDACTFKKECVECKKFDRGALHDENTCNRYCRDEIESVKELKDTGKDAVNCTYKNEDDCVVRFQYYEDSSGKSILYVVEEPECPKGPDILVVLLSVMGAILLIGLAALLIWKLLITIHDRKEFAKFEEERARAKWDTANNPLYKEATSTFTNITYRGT

[1] = M21 cells, 125I-echistatin, 2 h room temperature, read-out: IC50

| Compound | logP | IC50 (αvβ3 integrin; IC50 (nM)) [nM] | further results |
| --- | --- | --- | --- |
| 19F-galacto-RGD [reference compound] |  |  | IC50 (αvβ3 integrin; [1]): 319 nM; log IC50 (αvβ3 integrin; logarithmic IC50 with logarithmic error, M21 cells, 125I-echistatin, 2 h room temperature): −6.45 ± 0.157 |
| N=C(N)NCCC[C@@H]1NC(=O)[C@H](CCCCNC(=O)CCOCCOCCOCCOCCNC(=O)CCP(=O)(O)CN2CCN(CP(=O)(O)CCC(=O)NCCOCCOCCOCCOCCC(=O)NCCCC[C@@H]3NC(=O)[C@@H](Cc4ccccc4)NC(=O)[C@H](CC(=O)O)NC(=O)CNC(=O)[C@H](CCCNC(=N)N)NC3=O)CCN(CP(=O)(O)CCC(=O)NCCOCCOCCOCCOCCC(=O)NCCCC[C@@H]3NC(=O)[C@@H](Cc4ccccc4)NC(=O)[C@H](CC(=O)O)NC(=O)CNC(=O)[C@H](CCCNC(=N)N)NC3=O)CC2)NC(=O)[C@@H](Cc2ccccc2)NC(=O)[C@H](CC(=O)O)NC(=O)CNC1=O (single isomer, unassigned) [Ga-R3PEG4P9] | -3.9 ± 0.1 |  |  |
| N=C(N)NCCC[C@@H]1NC(=O)[C@H](CCCCNC(=O)CCP(=O)(O)CN2CCN(CP(=O)(O)CCC(=O)O)CCN(CP(=O)(O)CCC(=O)O)CC2)NC(=O)[C@@H](Cc2ccccc2)NC(=O)[C@H](CC(=O)O)NC(=O)CNC1=O [Compound R1P9] |  | 2890 | IC50 (αvβ3 integrin; log IC50): 2950 nM |
| N=C(N)NCCC[C@@H]1NC(=O)[C@H](CCCCNC(=O)CCP(=O)(O)CN2CCN(CP(=O)(O)CCC(=O)O)CCN(CP(=O)(O)CCC(=O)NCCCC[C@@H]3NC(=O)[C@@H](Cc4ccccc4)NC(=O)[C@H](CC(=O)O)NC(=O)CNC(=O)[C@H](CCCNC(=N)N)NC3=O)CC2)NC(=O)[C@@H](Cc2ccccc2)NC(=O)[C@H](CC(=O)O)NC(=O)CNC1=O [Compound R2P9] |  | 370 |  |
| CCN=c1cc2oc3cc(NCC)c(C)cc3c(-c3ccccc3C(=O)NCCCCCCNC(=O)CCP(=O)(O)CN3CCN(CP(=O)(O)CCC(=O)NCCCCC4NC(=O)[C@@H](Cc5ccccc5)NC(=O)[C@H](CC(=O)O)NC(=O)CNC(=O)[C@H](CCCNC(=N)N)NC4=O)CCN(CP(=O)(O)CCC(=O)NCCCC[C@@H]4NC(=O)[C@@H](Cc5ccccc5)NC(=O)[C@H](CC(=O)O)NC(=O)CNC(=O)[C@H](CCCNC(=N)N)NC4=O)CC3)c-2cc1C (some centres unmarked) [Compound R2RhoP9] |  | 92 |  |
| N=C(N)NCCC[C@@H]1NC(=O)[C@H](CCCCNC(=O)CC[C@H](NC(=O)CCP(=O)(O)CN2CCN(CP(=O)(O)CCC(=O)N[C@@H](CCC(=O)NCCCC[C@@H]3NC(=O)[C@@H](Cc4ccccc4)NC(=O)[C@H](CC(=O)O)NC(=O)CNC(=O)[C@H](CCCNC(=N)N)NC3=O)C(=O)O)CCN(CP(=O)(O)CCC(=O)N[C@@H](CCC(=O)NCCCC[C@@H]3NC(=O)[C@@H](Cc4ccccc4)NC(=O)[C@H](CC(=O)O)NC(=O)CNC(=O)[C@H](CCCNC(=N)N)NC3=O)C(=O)O)CC2)C(=O)O)NC(=O)[C@@H](Cc2ccccc2)NC(=O)[C@H](CC(=O)O)NC(=O)CNC1=O [Compound R3GlutP9] |  | 125 |  |
| N=C(N)NCCC[C@@H]1NC(=O)[C@H](CCCCNC(=O)CCCCCNC(=O)CC[PH](=O)CN2CCN(CP(=O)(O)CCC(=O)NCCCCCC(=O)NCCCC[C@@H]3NC(=O)[C@H](Cc4ccccc4)NC(=O)[C@H](CC(=O)O)NC(=O)CNC(=O)[C@H](CCCNC(=N)N)NC3=O)CCN(CP(=O)(O)CCC(=O)NCCCCCC(=O)NCCCC[C@@H]3NC(=O)[C@H](Cc4ccccc4)NC(=O)[C@H](CC(=O)O)NC(=O)CNC(=O)[C@H](CCCNC(=N)N)NC3=O)CC2)NC(=O)[C@H](Cc2ccccc2)NC(=O)[C@H](CC(=O)O)NC(=O)CNC1=O (some centres unmarked) [Compound R3HexP9] |  | 85 |  |
| N=C(N)NCCC[C@@H]1NC(=O)[C@H](CCCCNC(=O)CCOCCOCCOCCOCCOCCOCCOCCOCCNC(=O)CCP(=O)(O)CN2CCN(CP(=O)(O)CCC(=O)NCCOCCOCCOCCOCCOCCOCCOCCOCCC(=O)NCCCC[C@@H]3NC(=O)[C@@H](Cc4ccccc4)NC(=O)[C@H](CC(=O)O)NC(=O)CNC(=O)[C@H](CCCNC(=N)N)NC3=O)CCN(CP(=O)(O)CCC(=O)NCCOCCOCCOCCOCCOCCOCCOCCOCCC(=O)NCCCC[C@@H]3NC(=O)[C@@H](Cc4ccccc4)NC(=O)[C@H](CC(=O)O)NC(=O)CNC(=O)[C@H](CCCNC(=N)N)NC3=O)CC2)NC(=O)[C@@H](Cc2ccccc2)NC(=O)[C@H](CC(=O)O)NC(=O)CNC1=O [Compound R3PEG8P9] |  |  | IC50 (αvβ3 integrin; [1]): 50 nM |
| N=C(N)NCCC[C@@H]1NC(=O)[C@H](CCCCNC(=O)CCP(=O)(O)CN2CCN(CP(=O)(O)CCC(=O)O)CCN(CP(=O)(O)CCC(=O)O)CC2)NC(=O)[C@@H](Cc2ccccc2)NC(=O)[C@H](CC(=O)O)NC(=O)CNC1=O [Ga-R1P9] | -3.91 ± 0.11 |  |  |
| N=C(N)NCCC[C@@H]1NC(=O)[C@H](CCCCNC(=O)CCP(=O)(O)CN2CCN(CP(=O)(O)CCC(=O)O)CCN(CP(=O)(O)CCC(=O)NCCCC[C@@H]3NC(=O)[C@@H](Cc4ccccc4)NC(=O)[C@H](CC(=O)O)NC(=O)CNC(=O)[C@H](CCCNC(=N)N)NC3=O)CC2)NC(=O)[C@@H](Cc2ccccc2)NC(=O)[C@H](CC(=O)O)NC(=O)CNC1=O [Ga-R2P9] | -4.12 ± 0.06 |  |  |
| CCN=c1cc2oc3cc(NCC)c(C)cc3c(-c3ccccc3C(=O)NCCCCCCNC(=O)CCP(=O)(O)CN3CCN(CP(=O)(O)CCC(=O)NCCCC[C@@H]4NC(=O)[C@@H](Cc5ccccc5)NC(=O)[C@H](CC(=O)O)NC(=O)CNC(=O)[C@H](CCCNC(=N)N)NC4=O)CCN(CP(=O)(O)CCC(=O)NCCCC[C@@H]4NC(=O)[C@@H](Cc5ccccc5)NC(=O)[C@H](CC(=O)O)NC(=O)CNC(=O)[C@H](CCCNC(=N)N)NC4=O)CC3)c-2cc1C [Ga-R2RhoP9] | -1.27 ± 0.04 |  |  |
| N=C(N)NCCC[C@@H]1NC(=O)[C@H](CCCCNC(=O)CC[C@H](NC(=O)CCP(=O)(O)CN2CCN(CP(=O)(O)CCC(=O)N[C@@H](CCC(=O)NCCCC[C@@H]3NC(=O)[C@@H](Cc4ccccc4)NC(=O)[C@H](CC(=O)O)NC(=O)CNC(=O)[C@H](CCCNC(=N)N)NC3=O)C(=O)O)CCN(CP(=O)(O)CCC(=O)N[C@@H](CCC(=O)NCCCC[C@@H]3NC(=O)[C@@H](Cc4ccccc4)NC(=O)[C@H](CC(=O)O)NC(=O)CNC(=O)[C@H](CCCNC(=N)N)NC3=O)C(=O)O)CC2)C(=O)O)NC(=O)[C@@H](Cc2ccccc2)NC(=O)[C@H](CC(=O)O)NC(=O)CNC1=O [Ga-R3GlutP9] | -4.03 ± 0.12 |  |  |
| N=C(N)NCCC[C@@H]1NC(=O)[C@H](CCCCNC(=O)CCCCCNC(=O)CCP(=O)(O)CN2CCN(CP(=O)(O)CCC(=O)NCCCCCC(=O)NCCCC[C@@H]3NC(=O)[C@@H](Cc4ccccc4)NC(=O)[C@H](CC(=O)O)NC(=O)CNC(=O)[C@H](CCCNC(=N)N)NC3=O)CCN(CP(=O)(O)CCC(=O)NCCCCCC(=O)NCCCC[C@@H]3NC(=O)[C@@H](Cc4ccccc4)NC(=O)[C@H](CC(=O)O)NC(=O)CNC(=O)[C@H](CCCNC(=N)N)NC3=O)CC2)NC(=O)[C@@H](Cc2ccccc2)NC(=O)[C@H](CC(=O)O)NC(=O)CNC1=O [Ga-R3HexP9] | -3.99 ± 0.13 |  |  |
| Echistatin [reference compound] |  |  | log IC50 (αvβ3 integrin): −9.01 ± 0.033; IC50 (αvβ3 integrin; read-out: IC50): 0.98 nM |
